How the values were obtained:
[1] = HCA cytotoxicity toward infected macrophages (nuclear staining); assay type: cell-based, murine; conditions: mouse, RAW264.7 macrophages infected with S. Typhimurium, infected RAW264.7 cells, read-out: 50% cytotoxic concentration (CC50) toward macrophages
Procedure: (§1) Overnight cultures of RFP-expressing S. Typhimurium were prepared for infection by 1:100 dilution in fresh LB broth and incubation for 2 h at 37°C. The bacteria were then collected by centrifugation at 6,000 × g for 3 min and suspended in phosphate-buffered saline (PBS; pH 7.2) to an optical density of 0.6 at 600 nm, which was equivalent to 5 × 10^8 CFU/mL. RAW264.7 macrophages were seeded in 96-well black clear-bottom plates (Greiner) and incubated for 20 h followed by infection with RFP-expressing S. Typhimurium at a multiplicity of infection (MOI) of 50 for 1 h. […] Afterward, the cells were washed and stained with CellTracker Green (Thermo Fisher Scientific) for 30 min in serum-free DMEM followed by fixation in 3.7% formaldehyde (Sigma-Aldrich) for 20 min and stained with 0.2 mg/L DAPI (4′,6-diamidino-2-phenylindole; AAT Bioquest) for 30 min. Images of individual wells were captured and analyzed using a high-content imaging system (ImageXpress Micro 4; Molecular Devices). The CC50 and 50% effective concentration (EC50) values against intracellular bacteria of each compound were determined using CalcuSyn software (Biosoft).

[2] = system: ROS levels in Salmonella-infected RAW264.7 cells; test: Analysis of ROS in macrophages (H2DCFDA); assay type: cell-based, murine; conditions: 1 h; SW14 at concentrations up to 8 μM
Procedure: RAW264.7 macrophages were seeded in 96-well black plates and infected by S. Typhimurium ATCC 14028 at an MOI of 25 for 1 h. After infection, the cells were washed, exposed to 100 mg/L gentamicin for 1 h, washed with warm Krebs-Ringer phosphate buffer (KRP buffer; 120 mM NaCl, 5 mM KCl, 1.7 mM KH2PO4, 8.3 mM Na2HPO4, 10 mM glucose, 1 mM CaCl2, 1.5 mM MgCl2, pH 7.3) and stained with H2DCFDA at 37°C with 5% CO2 for 45 min. The cells were then washed with KRP buffer and treated with SW14 or PMA at the desired concentrations in KRP buffer with 10% FBS. Fluorescence signals at 488/525 nm (excitation/emission) were measured using a SpectraMax M5 Microplate Reader (Molecular Devices).

[3] = system: multidrug-resistant S. Typhimurium isolates 0911R and NL08.10 in RAW264.7 cells; test: HCA of intracellular multidrug-resistant isolates in macrophages; assay type: cell-based, Salmonella enterica serovar Typhimurium; conditions: 0911R and NL08.10, gentamicin, 24 h
Procedure: as §1

S. Typhimurium SA10 = test: MIC assay (broth microdilution); assay type: cell-based, Salmonella Typhimurium; conditions: Salmonella enterica, TYPHIMURIUM; Table S1(B), SA10
Procedure: (§2) The minimal inhibitory concentration (MIC) of each test compound against the individual bacterial strains was determined by the broth microdilution method following the guidelines recommended by the Clinical and Laboratory Standards Institute (CLSI) ([27]).

S. Typhimurium SB10 = test: MIC assay (broth microdilution); assay type: cell-based, Salmonella Typhimurium; conditions: Salmonella enterica, TYPHIMURIUM
Procedure: as §2

S. Typhimurium NL08.10 = test: MIC assay (broth microdilution); assay type: cell-based, Salmonella Typhimurium; conditions: Salmonella enterica, TYPHIMURIUM
Procedure: as §2

[4] = system: S. Typhimurium ATCC 14028; test: MIC assay (broth microdilution); assay type: cell-based, Salmonella Typhimurium
Procedure: as §2

S. Typhimurium = test: Bacterial growth assay (OD600); assay type: cell-based, Salmonella enterica serovar Typhimurium; conditions: for concentration inhibiting bacterial growth (OD600): 24 h
Procedure: Overnight-grown S. […] The plate was incubated at 37°C, and bacterial growth was monitored by measuring the absorbance at 600 nm with a VersaMax Microplate reader (Molecular Devices) at designated times for 24 h.

[5] = system: ciprofloxacin-resistant S. Typhimurium strains SA10 and SB10 in RAW264.7 cells; test: HCA of intracellular ciprofloxacin-resistant strains in macrophages; assay type: cell-based, Salmonella enterica serovar Typhimurium; conditions: SA10 and SB10, gentamicin, 24 h
Procedure: as §1

[6] = system: S. Typhimurium ATCC 14028; test: Analysis of bacterial susceptibility to H2O2 (CFU); assay type: cell-based, Salmonella enterica serovar Typhimurium; conditions: SW14 0.5 μM, 1 h
Procedure: Overnight-grown S. Typhimurium cultured in LB medium were diluted 1:50 in LPM medium or LB medium followed by incubation at 37°C for 3 h. The bacterial suspension was adjusted to an OD600 of 0.2 in fresh LPM medium or LB medium, exposed to SW14 and H2O2 for 1 h at 37°C with agitation, then serially diluted 10-fold in PBS, and spread on LB agar plates. After incubation at 37°C for 18 h, the number of colonies was counted, and the results are expressed as CFU/mL.

[7] = system: S. Typhimurium ATCC 14028; test: Efflux pump activity (Hoechst 33342 accumulation assay); assay type: cell-based, Salmonella enterica serovar Typhimurium; conditions: data not shown in text; Fig. S2
Procedure: Figure S2. The accumulation of Hoechst 33342 in S. Typhimurium ATCC 14028 treated
with escalated concentrations of SW14 for 1 h in the LPM medium was measured using a
fluorescence microplate reader. The data are presented as the mean ± SD (n = 3 per group).
ns: non-significant, P > 0.05; ***P < 0.001; ****P < 0.0001.
Hoechst 33342 accumulation assay
Overnight-grown S. Typhimurium cultured in LB medium was diluted 1:50 in LPM
medium and incubated at 37°C for 3 h. The bacterial suspension was adjusted to an OD600
of 0.1 in fresh LPM medium supplemented with 2.5 µM Hoechst 33342 (Thermo Fisher
Scientific) followed by treatment of mock (DMSO) or SW14 (0.03125 – 8 µM in DMSO)
for 1 h. Bacterial cells which were treated with high temperature (90° C) for 10 min (heat-
killed) rapidly accumulated Hoechst 33342 and served as positive control. Fluorescence
was monitored on a SpectraMax M5 (Molecular devices) with a 355 nm excitation filter
and 460 nm emission filter. The percent inhibition was calculated by the equation: 100 ´
[(SW14-treated – mock) / (Heat-killed – mock)].

S. Typhimurium 0911R = test: microbe, parasite or virus in culture; assay type: cell-based, Salmonella Typhimurium; conditions: Salmonella enterica, TYPHIMURIUM
Procedure: as §2

Q: For Clc1ccc2c(c1)C(NCCN1CCNCC1)=Nc1ccccc1O2 [SW14], which CC50 at 24 h [1] is on record?
A: 23.5 µM

Q: What about the “ROS level (H2DCFDA fluorescence signal) in infected macrophages” value [2] of the same compound?
A: did not observe any significant change

Q: And the “intracellular replication of MDR S. Typhimurium isolates” value [3]?
A: remained susceptible

Q: And the MIC (S. Typhimurium SA10)?
A: > 64 mg/L

Q: And the MIC (S. Typhimurium SB10)?
A: > 64 mg/L

Q: What about the MIC (S. Typhimurium NL08.10) of the same compound?
A: > 64 mg/L

Q: And the MIC ([4]; Salmonella enterica)?
A: > 64 mg/L

Q: And the MIC ([4]; Table S1(B), ATCC 14028)?
A: > 64 mg/L

Q: What about the “concentration inhibiting bacterial growth (OD600)” value (S. Typhimurium; Luria-Bertani (LB) medium) of the same compound?
A: > 64 µM

Q: What about the “growth of Salmonella in LPM medium” value (S. Typhimurium; acidic low-phosphate, low-magnesium (LPM) medium) of the same compound?
A: unable to detect any significant change

Q: What about the “concentration inhibiting bacterial growth in broth” value (S. Typhimurium; broth) of the same compound?
A: > 64 µM

Q: And the “concentration inhibiting bacterial growth (OD600)” value (S. Typhimurium; cell culture medium (DMEM + 10% FBS))?
A: > 64 µM

Q: What about the “intracellular proliferation of ciprofloxacin-resistant isolates” value [5] of the same compound?
A: highly sensitive

Q: What about the “susceptibility of S. Typhimurium to H2O2” value ([6]; minimal LPM medium) of the same compound?
A: significantly increased

Q: What about the “susceptibility of S. Typhimurium to H2O2” value ([6]; nutrient-rich LB broth) of the same compound?
A: not in nutrient-rich LB broth

Q: And the “efflux pump activity in S. Typhimurium” value [7]?
A: efflux pump suppressive effect

Q: And the MIC (S. Typhimurium 0911R)?
A: > 64 mg/L
